In paper PMC6445327, “Inhibition of the α-carbonic anhydrase from Vibrio cholerae with amides and sulfonamides incorporating imidazole moieties” (Journal of Enzyme Inhibition and Medicinal Chemistry, 2017):
In brackets after ≈: the same amount, converted by molar mass.

Key:
[1] = biological target: VchCA (Vibrio cholerae α-carbonic anhydrase) (Vibrio cholerae, UniProt Q9KMP6); test: biochemical
Method: (§1) The uncatalyzed rates were determined in the same manner and subtracted from the total observed rates. Stock solutions of inhibitor (0.01 mM) were prepared in distilled–deionised water with 5% DMSO and dilutions up to 0.1 nM were done thereafter with the assay buffer. The Inhibition constant (KI) was obtained by considering the classical Michaelis–Menten equation, which has been fitted by non-linear least squares by using PRISM 3. All CA isozymes used in the experiments were purified recombinant proteins obtained as reported earlier by our group.

hCA II = biological target: T1, hCA II (Homo sapiens, UniProt P00918); test: Stopped-flow CO2 hydration assay, CA inhibition; type: biochemical
T1 construct: made in house
Method: as §1

hCA I = biological target: T2, hCA I (Homo sapiens, UniProt P00915); test: Stopped-flow CO2 hydration assay, CA inhibition; type: biochemical
T2 construct: made in house
Method: as §1

[2] = tested on: two V. cholerae O1 strains (ATCC14103 and ISS-Vc014); test: In vitro antibacterial assay (broth dilution), strain not distinguished; type: cell-based, Vibrio cholerae; settings: up to 3 mg ml^−1 (the limit of solubility)
[3] = Limit of solubility in the antibacterial test; settings: 37 °C
[4] = tested on: V. cholerae O1 reference strain ATCC14103; test: In vitro antibacterial assay (broth dilution); type: cell-based, Vibrio cholerae; settings: for concentration inhibiting bacterial growth: 37 °C, 18–20 h, tryptic soy broth
[5] = tested on: V. cholerae O1 strain ISS-Vc014 (multiresistant clinical isolate); test: In vitro antibacterial assay (broth dilution); type: cell-based, Vibrio cholerae; settings: for concentration inhibiting bacterial growth: 37 °C, 18–20 h, tryptic soy broth

VchCA (Vibrio cholerae α-carbonic anhydrase), sequence (Q9KMP6 entry or part of it): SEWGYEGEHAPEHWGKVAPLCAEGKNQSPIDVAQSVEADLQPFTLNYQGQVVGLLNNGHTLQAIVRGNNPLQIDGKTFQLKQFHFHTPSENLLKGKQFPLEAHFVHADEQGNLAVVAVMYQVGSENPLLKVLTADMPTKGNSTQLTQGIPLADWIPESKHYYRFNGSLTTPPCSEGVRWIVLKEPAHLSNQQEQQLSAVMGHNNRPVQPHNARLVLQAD
T2 sequence (P00915 whole entry): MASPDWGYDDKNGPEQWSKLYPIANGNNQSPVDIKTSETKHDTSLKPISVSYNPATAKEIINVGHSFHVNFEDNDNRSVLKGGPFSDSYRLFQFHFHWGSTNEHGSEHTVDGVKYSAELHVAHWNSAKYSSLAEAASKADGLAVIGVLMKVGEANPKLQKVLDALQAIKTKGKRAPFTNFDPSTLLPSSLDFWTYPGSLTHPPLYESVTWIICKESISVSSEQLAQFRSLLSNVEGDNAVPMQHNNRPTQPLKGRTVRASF

SMILES	Ki [1] [nM]	Ki (hCA II) [nM]	Ki (hCA I) [nM]	melting point [°C]	inhibition of the bacterial growth at higher concentrations [2]	solubility [3] [µg/mL]	concentration inhibiting bacterial growth [4]	concentration inhibiting bacterial growth [5] [mg/mL]	activity compared to ampicillin [4]	activity compared to ampicillin [5]
O=C(NCCCn1ccnc1)c1ccc(-c2ccccc2)cc1 [Compound 9, N-(3-(1H-imidazol-1-yl)propyl)-[1,1′-biphenyl]-4-carboxamide]	5.4	> 50000	> 50000	–	–	–	–	–	–	–
CS(=O)(=O)NCCCn1ccnc1 [Compound 1, N-(3-(1H-imidazol-1-yl)propyl)methanesulfonamide]	10.9	> 10000	387	89 to 91	–	–	–	–	–	–
O=S(=O)(NCCCn1ccnc1)c1ccc(C(F)(F)F)cc1 [Compound 3, N-(3-(1H-imidazol-1-yl)propyl)-4-(trifluoromethyl)benzenesulfonamide]	6.4	> 50000	> 50000	127 to 128	–	–	–	–	–	–
O=C(NCCCn1ccnc1)c1ccc(C(F)(F)F)cc1 [Compound 7, N-(3-(1H-imidazol-1-yl)propyl)-4-(trifluoromethyl)benzamide]	10.4	> 10000	2550	106 to 107	not active	3000 (≈ 10.1 mM)	–	–	–	–
O=C(NCCCc1ccccc1)c1ccc([N+](=O)[O-])cc1 [Compound 10, 4-Nitro-N-(3-phenylpropyl)benzamide]	7.8	> 50000	> 50000	95 to 97	–	–	–	–	–	–
CC(=O)NCCCn1ccnc1 [Compound 5, N-(3-(1H-imidazol-1-yl)propyl)acetamide]	39.2	> 50000	> 50000	–	–	–	–	–	–	–
O=C(NCCCn1ccnc1)c1ccc(F)cc1 [Compound 6, N-(3-(1H-imidazol-1-yl)propyl)-4-fluorobenzamide]	9.1	> 50000	> 50000	70 to 72	–	–	–	–	–	–
O=C(NCCCn1ccnc1)c1ccc([N+](=O)[O-])cc1 [Compound 8, N-(3-(1H-imidazol-1-yl)propyl)-4-nitrobenzamide]	11	> 10000	1730	152 to 154	partially active	3000 (≈ 10.9 mM)	–	–	–	–
CC1(C)S[C@@H]2[C@H](NC(=O)[C@H](N)c3ccccc3)C(=O)N2[C@H]1C(=O)O [Ampicillin, reference compound]	–	–	–	–	–	–	higher than 0.01 mg ml^−1	1.0	–	–
O=[N+]([O-])c1ccc(S(=O)(=O)NCCCn2ccnc2)cc1 [Compound 4, N-(3-(1H-imidazol-1-yl)propyl)-4-nitrobenzenesulfonamide]	6.2	> 50000	> 50000	140 to 141	–	–	–	–	–	–
O=S(=O)(NCCCn1ccnc1)c1ccc(F)cc1 [Compound 2, N-(3-(1H-imidazol-1-yl)propyl)-4-fluorobenzenesulfonamide]	8.5	> 10000	1700	121 to 123	–	–	2 mg/mL	2	less active	comparable activity
